Key:
[1] = system: barley; experiment: Test B preemergence/postemergence greenhouse plant response rating 0 to 10; format: in vivo, Hordeum vulgare; conditions: 0 to 10 scale
How it was run: (§1)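 Test chemicals, dissolved in a non-phytotoxic solvent, were applied to soil at planting and, at the same time, over foliage of seedlings at the one to four leaf stage.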

[2] = system: bedstraw; experiment: as above; format: in vivo, Galium aparine; conditions: 0 to 10 scale
How it was run: as §1

[3] = system: cheatgrass; experiment: as above; format: in vivo, Bromus secalinus; conditions: 0 to 10 scale
How it was run: as §1

[4] = system: cocklebur; experiment: as above; format: in vivo, Xanthium pensylvanicum; conditions: 0 to 10 scale
How it was run: as §1

[5] = system: giant foxtail; experiment: as above; format: in vivo, Setaria faberii; conditions: 0 to 10 scale
How it was run: as §1

[6] = system: lambsquarters; experiment: as above; format: in vivo, Chenopodium album; conditions: 0 to 10 scale
How it was run: as §1

[7] = system: morningglory; experiment: as above; format: in vivo, Ipomoea hederacea; conditions: 0 to 10 scale
How it was run: as §1

[8] = system: soybean; experiment: as above; format: in vivo, Glycine max; conditions: 0 to 10 scale
How it was run: as §1

[9] = system: velvetleaf; experiment: as above; format: in vivo, Abutilon theophrasti; conditions: 0 to 10 scale
How it was run: as §1

[10] = system: barley; experiment: Test C preemergence/postemergence greenhouse plant response rating 0 to 100; format: in vivo, Hordeum vulgare; conditions: POSTEMERGENCE
How it was run: (§2)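 Compounds in non-phytotoxic solvent went onto sandy loam before emergence (seeded one day earlier) or onto plants at the one-to-four leaf stage. Duck salad was treated via flood water (~2.5 cm, maintained) over silt loam.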

[11] = system: blackgrass; experiment: as above; format: in vivo, Alopecurus myosuroides; conditions: POSTEMERGENCE
How it was run: as §2

[12] = system: chickweed; experiment: as above; format: in vivo, Stellaria media; conditions: POSTEMERGENCE
How it was run: as §2

[13] = system: giant foxtail; experiment: as above; format: in vivo, Setaria faberii; conditions: POSTEMERGENCE
How it was run: as §2

[14] = system: morningglory; experiment: as above; format: in vivo, Ipomoea hederacea; conditions: POSTEMERGENCE
How it was run: as §2

[15] = system: rape; experiment: as above; format: in vivo, Brassica napus; conditions: POSTEMERGENCE
How it was run: as §2

[16] = system: sorghum; experiment: as above; format: in vivo, Sorghum bicolor; conditions: POSTEMERGENCE
How it was run: as §2

[17] = system: soybean; experiment: as above; format: in vivo, Glycine max; conditions: POSTEMERGENCE
How it was run: as §2

[18] = system: rice; experiment: Test C flood test plant response rating 0 to 100; format: in vivo, Oryza sativa
How it was run: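 Compounds in non-phytotoxic solvent applied preemergence to sandy loam one day after planting, postemergence at the 1–4 leaf stage, or to ~2.5 cm floodwater over silt loam.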

COCN1C(=O)COc2cc(F)c(-c3nn4c(c3Br)CCCC4)cc21 [Compound 67]
Plant response rating, Barley ([1]; POSTEMERGENCE, Rate 10 g/ha): 4 | Plant response rating, Barley ([1]; POSTEMERGENCE, Rate 50 g/ha): 6 | Plant response rating, Barley ([1]; PREEMERGENCE, Rate 10 g/ha): 0 | Plant response rating, Barley ([1]; PREEMERGENCE, Rate 50 g/ha): 2 | Plant response rating, Bedstraw ([2]; POSTEMERGENCE, Rate 10 g/ha): 8 | Plant response rating, Bedstraw ([2]; POSTEMERGENCE, Rate 50 g/ha): 10 | Plant response rating, Bedstraw ([2]; PREEMERGENCE, Rate 10 g/ha): 0 | Plant response rating, Bedstraw ([2]; PREEMERGENCE, Rate 50 g/ha): 3 | Plant response rating, Cheatgrass ([3]; POSTEMERGENCE, Rate 10 g/ha): 5 | Plant response rating, Cheatgrass ([3]; POSTEMERGENCE, Rate 50 g/ha): 6 | Plant response rating, Cheatgrass ([3]; PREEMERGENCE, Rate 10 g/ha): 2 | Plant response rating, Cheatgrass ([3]; PREEMERGENCE, Rate 50 g/ha): 6 | Plant response rating, Cocklebur ([4]; POSTEMERGENCE, Rate 10 g/ha): 8 | Plant response rating, Cocklebur ([4]; POSTEMERGENCE, Rate 50 g/ha): 9 | Plant response rating, Cocklebur ([4]; PREEMERGENCE, Rate 10 g/ha): 0 | Plant response rating, Cocklebur ([4]; PREEMERGENCE, Rate 50 g/ha): 0 | Plant response rating, Giant foxtail ([5]; POSTEMERGENCE, Rate 10 g/ha): 5 | Plant response rating, Giant foxtail ([5]; POSTEMERGENCE, Rate 50 g/ha): 6 | Plant response rating, Giant foxtail ([5]; PREEMERGENCE, Rate 10 g/ha): 0 | Plant response rating, Giant foxtail ([5]; PREEMERGENCE, Rate 50 g/ha): 2 | Plant response rating, Lambsquarter ([6]; POSTEMERGENCE, Rate 10 g/ha): 9 | Plant response rating, Lambsquarter ([6]; POSTEMERGENCE, Rate 50 g/ha): 10 | Plant response rating, Lambsquarter ([6]; PREEMERGENCE, Rate 50 g/ha): 10 | Plant response rating, Morningglory ([7]; POSTEMERGENCE, Rate 10 g/ha): 10 | Plant response rating, Morningglory ([7]; POSTEMERGENCE, Rate 50 g/ha): 10 | Plant response rating, Morningglory ([7]; PREEMERGENCE, Rate 50 g/ha): 2 | Plant response rating, Soybean ([8]; POSTEMERGENCE, Rate 10 g/ha): 8 | Plant response rating, Soybean ([8]; POSTEMERGENCE, Rate 50 g/ha): 9 | Plant response rating, Soybean ([8]; PREEMERGENCE, Rate 50 g/ha): 0 | Plant response rating, Velvetleaf ([9]; POSTEMERGENCE, Rate 10 g/ha): 9 | Plant response rating, Velvetleaf ([9]; POSTEMERGENCE, Rate 50 g/ha): 10 | Plant response rating, Velvetleaf ([9]; PREEMERGENCE, Rate 50 g/ha): 1 | Plant response rating Barley Igri ([10]; 62 g/ha, 0 to 100 scale): 50 | Plant response rating (0 to 100), Barley Igri ([10]; Rate 1 g/ha): 20 | Plant response rating (0 to 100), Barley Igri ([10]; Rate 4 g/ha): 30 | Plant response rating (0 to 100), Barley Igri ([10]; Rate 16 g/ha): 30 | Plant response rating, Blackgrass ([11]; 62 g/ha, 0 to 100 scale): 60 | Plant response rating (0 to 100), Blackgrass ([11]; Rate 1 g/ha): 30 | Plant response rating (0 to 100), Blackgrass ([11]; Rate 4 g/ha): 40 | Plant response rating (0 to 100), Blackgrass ([11]; Rate 16 g/ha): 50 | Plant response rating, Chickweed ([12]; 62 g/ha, 0 to 100 scale): 100 | Plant response rating (0 to 100), Chickweed ([12]; Rate 1 g/ha): 70 | Plant response rating (0 to 100), Chickweed ([12]; Rate 4 g/ha): 70 | Plant response rating (0 to 100), Chickweed ([12]; Rate 16 g/ha): 95 | Plant response rating, Giant foxtail ([13]; 62 g/ha, 0 to 100 scale): 40 | Plant response rating (0 to 100), Giant foxtail ([13]; Rate 1 g/ha): 10 | Plant response rating (0 to 100), Giant foxtail ([13]; Rate 4 g/ha): 20 | Plant response rating (0 to 100), Giant foxtail ([13]; Rate 16 g/ha): 30 | Plant response rating, Morningglory ([14]; 62 g/ha, 0 to 100 scale): 100 | Plant response rating (0 to 100), Morningglory ([14]; Rate 1 g/ha): 50 | Plant response rating (0 to 100), Morningglory ([14]; Rate 4 g/ha): 70 | Plant response rating (0 to 100), Morningglory ([14]; Rate 16 g/ha): 100 | Plant response rating, Rape ([15]; 62 g/ha, 0 to 100 scale): 100 | Plant response rating (0 to 100), Rape ([15]; Rate 1 g/ha): 70 | Plant response rating (0 to 100), Rape ([15]; Rate 4 g/ha): 70 | Plant response rating (0 to 100), Rape ([15]; Rate 16 g/ha): 90 | Plant response rating, Sorghum ([16]; 62 g/ha, 0 to 100 scale): 60 | Plant response rating (0 to 100), Sorghum ([16]; Rate 1 g/ha): 20 | Plant response rating (0 to 100), Sorghum ([16]; Rate 4 g/ha): 30 | Plant response rating (0 to 100), Sorghum ([16]; Rate 16 g/ha): 40 | Plant response rating, Soybean ([17]; 62 g/ha, 0 to 100 scale): 95 | Plant response rating (0 to 100), Soybean ([17]; Rate 1 g/ha): 30 | Plant response rating (0 to 100), Soybean ([17]; Rate 4 g/ha): 50 | Plant response rating (0 to 100), Soybean ([17]; Rate 16 g/ha): 80 | Plant response rating (0 to 100), Rice Japonica ([18]; POSTEMERGENCE section, flood test, Rate 1 g/ha): 0 | Plant response rating (0 to 100), Rice Japonica ([18]; POSTEMERGENCE section, flood test, Rate 4 g/ha): 0 | Plant response rating (0 to 100), Rice Japonica ([18]; Rate 16 g/ha, under POSTEMERGENCE head (flood test species)): 50 | Plant response rating Rice Japonica ([18]; flood test species listed under POSTEMERGENCE, 62 g/ha, 0 to 100 scale): 90
